According to patent US10821195B2, “Compositions for therapeutics, targeted PET imaging and methods of their use” (Memorial Sloan Kettering Cancer Center, priority 2015, dated 2020):

Columns and labels:
[1] = Biodistribution of ^177Lu-HOPO and ^177Lu-DOTA in healthy female nude mice; assay type: in vivo
Description: Therefore, healthy female nude mice were injected with each of the complexes in order to determine their relative in vivo stabilities. The results are tabulated in Table 3 and are shown as graphs in FIG. 21A, FIG. 21B and FIG. 22.
Aliquots of the injectate (10 μL) were weighed and counted as standards with the tissues. The injection syringes were weighed pre- and post-injection to determine the weight of injectate and the activity according to the dose calibrator was measured before and after injection. All of the tissues were weighed and counted with the standards. The standards were used to obtain the counts/g injectate, the weights of the injectate were used to determine the total number of counts for the injected dose (ID), the counts of the tissue were used to get the % ID, and the weights of the tissues were used to obtain the % ID/g. Standard averaging and standard deviation calculations were applied.

[2] = Hydroxyapatite stability (competition); assay type: physicochemical; details: after 6 d, 37° C.
Description: Additionally, each day the mixtures were vortexed to ensure proper mixing. At the respective time point, the aliquot was vortexed, centrifuged, vortexed, filtered (0.45 μm, 13 mm, nylon syringe filter, Fisher Scientific, Waltham, Mass.), and the filter washed with 1 mL of 50:50 EtOH in water. The filter (bound to hydroxyapatite), reaction tube, and filtrate (bound to the chelator) were counted separately on a gamma counter to determine the amount of activity in each.

[3] = Metal ion challenge of ^177Lu-HOPO and ^177Lu-DOTA; assay type: physicochemical; details: 10-fold excess Cu^2+, Fe^3+, Ga^3+, Gd^3+, 6 d
Description: The incubations were performed at 37° C. in a thermomixer over the course of 6 d and analyzed by radioTLC using C-18 TLC plates developed with 50 mM DTPA at 1, 3, and 6 d.

Log D7.4 in octanol/PBS = assay type: physicochemical

## O=C([O-])CN1CCN(CC(=O)[O-])CCN(CC(=O)[O-])CCN(CC(=O)[O-])CC1.[177Lu+3].[H+] [^177Lu-DOTA]
[1]; 0.5 h
  Blood/Bone ratio: 5 ± 2
  Kidney/Bone ratio: 13 ± 7
  L. Intestine/Bone ratio: 0.6 ± 0.3
  Liver/Bone ratio: 2.2 ± 0.7
  Muscle/Bone ratio: 0.9 ± 0.5
  S. Intestine/Bone ratio: 1.6 ± 0.6
  biodistribution Bladder: 0.691 ± 0.116 % ID/g
  biodistribution Blood: 0.407 ± 0.179 % ID/g
  biodistribution Bone: 0.090 ± 0.026 % ID/g
  biodistribution Heart: 0.142 ± 0.069 % ID/g
  biodistribution Kidneys: 1.121 ± 0.490 % ID/g
  biodistribution L. Intestine: 0.056 ± 0.025 % ID/g
  biodistribution Liver: 0.199 ± 0.033 % ID/g
  biodistribution Lungs: 0.298 ± 0.131 % ID/g
  biodistribution Muscle: 0.085 ± 0.037 % ID/g
  biodistribution Pancreas: 0.080 ± 0.037 % ID/g
  biodistribution S. Intestine: 0.142 ± 0.038 % ID/g
  biodistribution Spleen: 0.103 ± 0.019 % ID/g
  biodistribution Stomach: 0.120 ± 0.035 % ID/g
[1]; 1 h
  Blood/Bone ratio: 0.6 ± 0.4
  Kidney/Bone ratio: 30 ± 30
  L. Intestine/Bone ratio: 0.26 ± 0.19
  Liver/Bone ratio: 2.3 ± 1.7
  Muscle/Bone ratio: 0.4 ± 0.4
  S. Intestine/Bone ratio: 1.5 ± 1.1
  biodistribution Bladder: 0.2962 ± 0.1869 % ID/g
  biodistribution Blood: 0.0287 ± 0.0038 % ID/g
  biodistribution Bone: 0.0491 ± 0.0349 % ID/g
  biodistribution Heart: 0.0142 ± 0.0016 % ID/g
  biodistribution Kidneys: 1.4402 ± 1.2901 % ID/g
  biodistribution L. Intestine: 0.0129 ± 0.0015 % ID/g
  biodistribution Liver: 0.1121 ± 0.0174 % ID/g
  biodistribution Lungs: 0.0444 ± 0.0175 % ID/g
  biodistribution Muscle: 0.0219 ± 0.0154 % ID/g
  biodistribution Pancreas: 0.0143 ± 0.0050 % ID/g
  biodistribution S. Intestine: 0.0722 ± 0.0209 % ID/g
  biodistribution Spleen: 0.0410 ± 0.0100 % ID/g
  biodistribution Stomach: 0.0230 ± 0.0174 % ID/g
[1]; 4 h
  Blood/Bone ratio: 0.18 ± 0.06
  Kidney/Bone ratio: 40 ± 30
  L. Intestine/Bone ratio: 6 ± 7
  Liver/Bone ratio: 10 ± 4
  Muscle/Bone ratio: 0.74 ± 0.15
  S. Intestine/Bone ratio: 3 ± 3
  biodistribution Bladder: 0.1088 ± 0.0148 % ID/g
  biodistribution Blood: 0.0011 ± 0.0003 % ID/g
  biodistribution Bone: 0.0060 ± 0.0007 % ID/g
  biodistribution Heart: 0.0052 ± 0.0016 % ID/g
  biodistribution Kidneys: 0.2398 ± 0.1571 % ID/g
  biodistribution L. Intestine: 0.0361 ± 0.0403 % ID/g
  biodistribution Liver: 0.0614 ± 0.0205 % ID/g
  biodistribution Lungs: 0.0080 ± 0.0044 % ID/g
  biodistribution Muscle: 0.0044 ± 0.0007 % ID/g
  biodistribution Pancreas: 0.0068 ± 0.0038 % ID/g
  biodistribution S. Intestine: 0.0209 ± 0.0180 % ID/g
  biodistribution Spleen: 0.0249 ± 0.0009 % ID/g
  biodistribution Stomach: 0.0038 ± 0.0026 % ID/g
[1]; 1 d
  Blood/Bone ratio: 0.04 ± 0.02
  Kidney/Bone ratio: 46 ± 12
  L. Intestine/Bone ratio: 10 ± 7
  Liver/Bone ratio: 7.6 ± 1.6
  Muscle/Bone ratio: 0.6 ± 0.3
  S. Intestine/Bone ratio: 4 ± 3
  biodistribution Bladder: 0.1599 ± 0.07394 % ID/g
  biodistribution Blood: 0.0002 ± 0.00011 % ID/g
  biodistribution Bone: 0.00484 ± 0.00076 % ID/g
  biodistribution Heart: 0.0027 ± 0.00067 % ID/g
  biodistribution Kidneys: 0.2226 ± 0.04562 % ID/g
  biodistribution L. Intestine: 0.05022 ± 0.03098 % ID/g
  biodistribution Liver: 0.0369 ± 0.00538 % ID/g
  biodistribution Lungs: 0.0041 ± 0.00192 % ID/g
  biodistribution Muscle: 0.00281 ± 0.00151 % ID/g
  biodistribution Pancreas: 0.00337 ± 0.00062 % ID/g
  biodistribution S. Intestine: 0.02037 ± 0.01362 % ID/g
  biodistribution Spleen: 0.02143 ± 0.00625 % ID/g
  biodistribution Stomach: 0.00294 ± 0.00146 % ID/g
[1]; 6 d
  Blood/Bone ratio: 0.007 ± 0.015
  Carcass/Bone ratio: 0.60 ± 0.17
  Kidney/Bone ratio: 10 ± 4
  L. Intestine/Bone ratio: 0.34 ± 0.10
  Liver/Bone ratio: 4.2 ± 1.2
  Muscle/Bone ratio: 0.16 ± 0.12
  S. Intestine/Bone ratio: 0.24 ± 0.07
  biodistribution Bladder: 0.1186 ± 0.05899 % ID/g
  biodistribution Blood: 0.00003 ± 0.00006 % ID/g
  biodistribution Bone: 0.00412 ± 0.00104 % ID/g
  biodistribution Carcass: 0.0025 ± 0.0003 % ID/g
  biodistribution Heart: 0.00158 ± 0.00062 % ID/g
  biodistribution Kidneys: 0.04311 ± 0.01362 % ID/g
  biodistribution L. Intestine: 0.0014 ± 0.00017 % ID/g
  biodistribution Liver: 0.01724 ± 0.00259 % ID/g
  biodistribution Lungs: 0.00142 ± 0.00102 % ID/g
  biodistribution Muscle: 0.00067 ± 0.00046 % ID/g
  biodistribution Pancreas: 0.0012 ± 0.00048 % ID/g
  biodistribution S. Intestine: 0.001 ± 0.00011 % ID/g
  biodistribution Spleen: 0.01313 ± 0.00408 % ID/g
  biodistribution Stomach: 0.00045 ± 0.00010 % ID/g
[1]; 6 d, listed as Lu-DOTA
  biodistribution Bone: 0.004±0.001 % ID/g
[1]; 6 d p.i.
  residual activity in all tissues and carcass: 0.092±0.009 % ID
  residual activity in carcass: 0.044±0.004 % ID
[1]; healthy female nude mice
  clearance pathway: excreted mostly via the renal-urinary clearance pathway
[2]
  complex intact in hydroxyapatite competition: > 98%
[3]
  stability to transmetallation: stable to transmetallation with all of the metals investigated in this study
Log D7.4 in octanol/PBS
  Log D7.4: −4.1±0.4
